Values of other authors in patent US20090317483A1, “Bicomponent Bioadhesive for Biomedical Use” (INSTITUTO OFTALMOLOGICO DE ALICANTE, S.L., priority 2004, published 2009).

Conditions: in vivo

Compound: C=C(C#N)C(=O)OCCCC [butyl cyanoacrylate]
- closure of corneal perforations: effective
